Experimental data: PubChem BioAssay (NCI)
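1) Cells in 96-well plates. 2) Compound, 48 h, 5 concentrations. 3) Linear interpolation between surrounding doses. 4) Unreached endpoint = highest concentration. Here, GI50 denotes the concentration required for 50% inhibition of growth. TGI marks complete inhibition of growth.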

Test system: HOP-92 NSCLC
Assay: NCI anticancer screen, dose series, 48 h

SMILES	TGI [µM]	GI50 [µM]
NNC1=N/C(=C\c2ccco2)C(Cl)=N1	> 100	–
CC1=C2C(=C[C@H]3[C@]4(C)CCCC(C)(C)[C@H]4CC[C@]34O[C@H]24)OC1=O	> 100	–
COc1cc2c(Nc3cc(Cl)c(OC)c(Cl)c3)c(C#N)cnc2cc1OCCCN1CCN(C)CC1	19.4	7.83
COC(=O)C1C(O)C(C(=O)OC)C(C)N(C)C1C (stereo not given)	> 100	–
c1ccc2c(c1)c1c(n2CCOCCN2CCOCC2)CCCC1	71.9	–
CCOC(=O)c1c(-c2ccccc2)c(-c2ccccc2)cn1C	> 10	–

Test system: HS 578T breast
Assay: NCI anticancer screen, dose series, 48 h

SMILES	TGI [µM]	GI50 [µM]
C=C1c2cc3c(cc2CC12Cc1cc4c(cc1C2=O)CCC4)CCC3 (stereo not given)	> 100	–
NNC1=N/C(=C\c2ccco2)C(Cl)=N1	> 100	–
COc1cc2c(Nc3cc(Cl)c(OC)c(Cl)c3)c(C#N)cnc2cc1OCCCN1CCN(C)CC1	11.5	2.82
c1ccc2c(c1)c1c(n2CCOCCN2CCOCC2)CCCC1	> 100	–
CCOC(=O)c1c(-c2ccccc2)c(-c2ccccc2)cn1C	> 10	–

Test system: HT29 colon
Assay: NCI anticancer screen, dose series, 48 h

SMILES	TGI [µM]	GI50 [µM]
C=C1c2cc3c(cc2CC12Cc1cc4c(cc1C2=O)CCC4)CCC3 (stereo not given)	> 100	–
NNC1=N/C(=C\c2ccco2)C(Cl)=N1	> 100	–
CC1=C2C(=C[C@H]3[C@]4(C)CCCC(C)(C)[C@H]4CC[C@]34O[C@H]24)OC1=O	> 100	–
COc1cc2c(Nc3cc(Cl)c(OC)c(Cl)c3)c(C#N)cnc2cc1OCCCN1CCN(C)CC1	3.25	0.927
COC(=O)C1C(O)C(C(=O)OC)C(C)N(C)C1C (stereo not given)	> 100	–
c1ccc2c(c1)c1c(n2CCOCCN2CCOCC2)CCCC1	31.6	–
CCOC(=O)c1c(-c2ccccc2)c(-c2ccccc2)cn1C	> 10	–

Test system: IGROV1 ovarian
Assay: NCI anticancer screen, dose series, 48 h

SMILES	TGI [µM]	GI50 [µM]
C=C1c2cc3c(cc2CC12Cc1cc4c(cc1C2=O)CCC4)CCC3 (stereo not given)	> 100	–
NNC1=N/C(=C\c2ccco2)C(Cl)=N1	> 100	–
CC1=C2C(=C[C@H]3[C@]4(C)CCCC(C)(C)[C@H]4CC[C@]34O[C@H]24)OC1=O	> 100	–
COc1cc2c(Nc3cc(Cl)c(OC)c(Cl)c3)c(C#N)cnc2cc1OCCCN1CCN(C)CC1	12	0.189
COC(=O)C1C(O)C(C(=O)OC)C(C)N(C)C1C (stereo not given)	> 100	–
c1ccc2c(c1)c1c(n2CCOCCN2CCOCC2)CCCC1	> 100	–
CCOC(=O)c1c(-c2ccccc2)c(-c2ccccc2)cn1C	> 10	–

Test system: K-562 leukemia
Assay: NCI anticancer screen, dose series, 48 h

SMILES	TGI [µM]	GI50 [µM]
C=C1c2cc3c(cc2CC12Cc1cc4c(cc1C2=O)CCC4)CCC3 (stereo not given)	> 100	–
NNC1=N/C(=C\c2ccco2)C(Cl)=N1	42	–
CC1=C2C(=C[C@H]3[C@]4(C)CCCC(C)(C)[C@H]4CC[C@]34O[C@H]24)OC1=O	> 100	–
COc1cc2c(Nc3cc(Cl)c(OC)c(Cl)c3)c(C#N)cnc2cc1OCCCN1CCN(C)CC1	8.41	0.574
COC(=O)C1C(O)C(C(=O)OC)C(C)N(C)C1C (stereo not given)	> 100	–
c1ccc2c(c1)c1c(n2CCOCCN2CCOCC2)CCCC1	> 100	–
CCOC(=O)c1c(-c2ccccc2)c(-c2ccccc2)cn1C	> 10	–

Test system: KM12 colon
Assay: NCI anticancer screen, dose series, 48 h

SMILES	TGI [µM]	GI50 [µM]
NNC1=N/C(=C\c2ccco2)C(Cl)=N1	> 100	–
CC1=C2C(=C[C@H]3[C@]4(C)CCCC(C)(C)[C@H]4CC[C@]34O[C@H]24)OC1=O	> 100	–
COc1cc2c(Nc3cc(Cl)c(OC)c(Cl)c3)c(C#N)cnc2cc1OCCCN1CCN(C)CC1	10.1	2.19
COC(=O)C1C(O)C(C(=O)OC)C(C)N(C)C1C (stereo not given)	> 100	–
c1ccc2c(c1)c1c(n2CCOCCN2CCOCC2)CCCC1	> 100	–
CCOC(=O)c1c(-c2ccccc2)c(-c2ccccc2)cn1C	> 10	–

Test system: LOX IMVI melanoma
Assay: NCI anticancer screen, dose series, 48 h

SMILES	TGI [µM]	GI50 [µM]
C=C1c2cc3c(cc2CC12Cc1cc4c(cc1C2=O)CCC4)CCC3 (stereo not given)	> 100	–
NNC1=N/C(=C\c2ccco2)C(Cl)=N1	70.8	–
COc1cc2c(Nc3cc(Cl)c(OC)c(Cl)c3)c(C#N)cnc2cc1OCCCN1CCN(C)CC1	2.43	1.06
COC(=O)C1C(O)C(C(=O)OC)C(C)N(C)C1C (stereo not given)	> 100	–
c1ccc2c(c1)c1c(n2CCOCCN2CCOCC2)CCCC1	63.6	–

Test system: M14 melanoma
Assay: NCI anticancer screen, dose series, 48 h

SMILES	TGI [µM]	GI50 [µM]
C=C1c2cc3c(cc2CC12Cc1cc4c(cc1C2=O)CCC4)CCC3 (stereo not given)	> 100	–
NNC1=N/C(=C\c2ccco2)C(Cl)=N1	> 100	–
CC1=C2C(=C[C@H]3[C@]4(C)CCCC(C)(C)[C@H]4CC[C@]34O[C@H]24)OC1=O	> 100	–
COc1cc2c(Nc3cc(Cl)c(OC)c(Cl)c3)c(C#N)cnc2cc1OCCCN1CCN(C)CC1	2.57	1.1
COC(=O)C1C(O)C(C(=O)OC)C(C)N(C)C1C (stereo not given)	> 100	–
c1ccc2c(c1)c1c(n2CCOCCN2CCOCC2)CCCC1	30.9	–
CCOC(=O)c1c(-c2ccccc2)c(-c2ccccc2)cn1C	> 10	–

Test system: MALME-3M melanoma
Assay: NCI anticancer screen, dose series, 48 h

SMILES	TGI [µM]	GI50 [µM]
C=C1c2cc3c(cc2CC12Cc1cc4c(cc1C2=O)CCC4)CCC3 (stereo not given)	> 100	–
NNC1=N/C(=C\c2ccco2)C(Cl)=N1	> 100	–
CC1=C2C(=C[C@H]3[C@]4(C)CCCC(C)(C)[C@H]4CC[C@]34O[C@H]24)OC1=O	> 100	–
COc1cc2c(Nc3cc(Cl)c(OC)c(Cl)c3)c(C#N)cnc2cc1OCCCN1CCN(C)CC1	3.7	1.6
c1ccc2c(c1)c1c(n2CCOCCN2CCOCC2)CCCC1	29	–
CCOC(=O)c1c(-c2ccccc2)c(-c2ccccc2)cn1C	> 10	–

Test system: MCF7 breast
Assay: NCI anticancer screen, dose series, 48 h

SMILES	TGI [µM]	GI50 [µM]
C=C1c2cc3c(cc2CC12Cc1cc4c(cc1C2=O)CCC4)CCC3 (stereo not given)	> 100	–
NNC1=N/C(=C\c2ccco2)C(Cl)=N1	> 100	–
CC1=C2C(=C[C@H]3[C@]4(C)CCCC(C)(C)[C@H]4CC[C@]34O[C@H]24)OC1=O	> 100	–
COc1cc2c(Nc3cc(Cl)c(OC)c(Cl)c3)c(C#N)cnc2cc1OCCCN1CCN(C)CC1	12.6	2.58
COC(=O)C1C(O)C(C(=O)OC)C(C)N(C)C1C (stereo not given)	> 100	–
c1ccc2c(c1)c1c(n2CCOCCN2CCOCC2)CCCC1	> 100	–

Test system: MDA-MB-231 breast
Assay: NCI anticancer screen, dose series, 48 h

SMILES	TGI [µM]	GI50 [µM]
C=C1c2cc3c(cc2CC12Cc1cc4c(cc1C2=O)CCC4)CCC3 (stereo not given)	> 100	–
NNC1=N/C(=C\c2ccco2)C(Cl)=N1	> 100	–
CC1=C2C(=C[C@H]3[C@]4(C)CCCC(C)(C)[C@H]4CC[C@]34O[C@H]24)OC1=O	> 100	–
COc1cc2c(Nc3cc(Cl)c(OC)c(Cl)c3)c(C#N)cnc2cc1OCCCN1CCN(C)CC1	5.2	2.6
COC(=O)C1C(O)C(C(=O)OC)C(C)N(C)C1C (stereo not given)	> 100	–
c1ccc2c(c1)c1c(n2CCOCCN2CCOCC2)CCCC1	47	–

Test system: MDA-MB-435
Assay: NCI anticancer screen, dose series, 48 h

SMILES	TGI [µM]	GI50 [µM]
C=C1c2cc3c(cc2CC12Cc1cc4c(cc1C2=O)CCC4)CCC3 (stereo not given)	> 100	–
NNC1=N/C(=C\c2ccco2)C(Cl)=N1	> 100	–
CC1=C2C(=C[C@H]3[C@]4(C)CCCC(C)(C)[C@H]4CC[C@]34O[C@H]24)OC1=O	> 100	–
COc1cc2c(Nc3cc(Cl)c(OC)c(Cl)c3)c(C#N)cnc2cc1OCCCN1CCN(C)CC1	3.2	1.24
COC(=O)C1C(O)C(C(=O)OC)C(C)N(C)C1C (stereo not given)	> 100	–
CCOC(=O)c1c(-c2ccccc2)c(-c2ccccc2)cn1C	> 10	–

Test system: MDA-N
Assay: NCI anticancer screen, dose series, 48 h

SMILES	TGI [µM]
C=C1c2cc3c(cc2CC12Cc1cc4c(cc1C2=O)CCC4)CCC3 (stereo not given)	> 100
NNC1=N/C(=C\c2ccco2)C(Cl)=N1	> 100
CC1=C2C(=C[C@H]3[C@]4(C)CCCC(C)(C)[C@H]4CC[C@]34O[C@H]24)OC1=O	> 100
COC(=O)C1C(O)C(C(=O)OC)C(C)N(C)C1C (stereo not given)	> 100
c1ccc2c(c1)c1c(n2CCOCCN2CCOCC2)CCCC1	> 100
CCOC(=O)c1c(-c2ccccc2)c(-c2ccccc2)cn1C	> 10

Test system: MOLT-4 leukemia
Assay: NCI anticancer screen, dose series, 48 h

SMILES	TGI [µM]	GI50 [µM]
C=C1c2cc3c(cc2CC12Cc1cc4c(cc1C2=O)CCC4)CCC3 (stereo not given)	> 100	–
NNC1=N/C(=C\c2ccco2)C(Cl)=N1	34.9	–
CC1=C2C(=C[C@H]3[C@]4(C)CCCC(C)(C)[C@H]4CC[C@]34O[C@H]24)OC1=O	> 100	–
COc1cc2c(Nc3cc(Cl)c(OC)c(Cl)c3)c(C#N)cnc2cc1OCCCN1CCN(C)CC1	7.92	1.67
COC(=O)C1C(O)C(C(=O)OC)C(C)N(C)C1C (stereo not given)	> 100	–
c1ccc2c(c1)c1c(n2CCOCCN2CCOCC2)CCCC1	69.8	–
CCOC(=O)c1c(-c2ccccc2)c(-c2ccccc2)cn1C	> 10	–

Test system: NCI-H226 lung
Assay: NCI anticancer screen, dose series, 48 h

SMILES	TGI [µM]	GI50 [µM]
NNC1=N/C(=C\c2ccco2)C(Cl)=N1	> 100	–
CC1=C2C(=C[C@H]3[C@]4(C)CCCC(C)(C)[C@H]4CC[C@]34O[C@H]24)OC1=O	> 100	–
COc1cc2c(Nc3cc(Cl)c(OC)c(Cl)c3)c(C#N)cnc2cc1OCCCN1CCN(C)CC1	18.2	3.39
COC(=O)C1C(O)C(C(=O)OC)C(C)N(C)C1C (stereo not given)	> 100	–
